Measured values: patent publication US8481691B2, “Method for selectively extracting membrane proteins using calixarenes” (Centre National de la Recherche Scientifique—CNRS, priority 2008, dated 2013)

Legend:
BmrA [1] = target: T1, BmrA (Bacillus subtilis, UniProt O06967); test: Vanadate-sensitive ATPase activity of BmrA after solubilization; format: biochemical; conditions: for ATPase activity of BmrA with solubilization: increasing detergent concentration; for ATPase activity of BmrA with solubilization / Effect on ATPase activity of BmrA: FIG. 9; for ATPase activity of BmrA after reconstitution in liposomes: after removal of the detergents; for Loss of ATPase activity of BmrA once solubilized: relative to BmrA activity in natural membranes; for Effect on ATPase activity of BmrA: 1 mg/ml
T1 construct: made in house; host or cells: E. coli C41 BL21(DE3), plasmid pET15b-BMRA; isolated membrane fraction
From the text: The solubilization tests take place as in FIG. 8 and the ATPase activity tests are described in example 11. The vertical dotted lines show the CMC of each compound. The black lozenges correspond to a test in which BmrA is solubilized with p(COOH)3—Ar4-o(C7H15) then reconstituted in lipids after removal of the detergent with biobeads (Bio-Rad) according to the procedure described in Lenoir et al..
The percentage of specific ATPase activity sensitive to vanadate (% SA or % VO4 sensitive Specific ATPase Activity) is evaluated for the following different cases: • BmrA Mb: activity of BmrA in natural membranes, • DDM sup./DDM: activity of BmrA in the DDM extract, • DDM sup./Lip.: activity of BmrA from the DDM extract and reconstituted in liposomes, • FC12 sup./FC12: activity of BmrA in the Foscholine 12 extract, • FC12 sup./Lip.: activity of BmrA from the Foscholine 12 extract and reconstituted in liposomes, • C4C7 sup./[…]: activity of BmrA in the calixarene C4C7 (in other words calix[4]arene-O-heptyloxy) extract, • C4C7 sup./Lip.: activity of BmrA from the calixarene C4C7 extract and reconstituted in liposomes.
FIG. 12 summarizes the results of an extraction successively using the calixarenes C4C3 then C4C7 (FIG. 12A) followed by purification by gel filtration chromatography (FIGS. 12B-E).
The ATPase activity is measured by evaluating the inorganic phosphate content (Pi) after 5 minutes of incubation at 37° C. The fraction of Pi produced by other ATPase activities is deducted by measuring the same activity in the presence of 1 mM of ortho vanadate which inhibits the ATPase activity of BmrA (for example as described in [10]).
The effect of the solubilization by the p(COOH)3—Ar4-o(CnH2n+1) series on the ATPase activity of BmrA was analyzed under the same conditions as in FIG. 8.
The effects of the solubilization on the activity of the BmrA protein were evaluated with various C4Cn calixarenes, in other words the p(COOH)3—Ar4-o(CnH2n+1) calixarenes, but also with the control detergents such as Foscholine 12 (FC12) and β-D-dodecyl maltopyranoside (DDM), then the extracts obtained (supernatant fractions) were dialyzed in the presence of liposomes in order to restore a membrane environment, which enables the recovery of the activity of the protein.

BmrA [2] = target: T1, BmrA; test: Solubilization of BmrA from enriched membrane fractions (centrifugation, SDS PAGE); format: biochemical, E. coli membrane fraction; conditions: for Solubilization of BmrA (found in supernatant): detergent 10 mg/ml (1%), 2 mg proteins/ml, 2 hrs at 4° C., FIG. 7; for Solubilization of BmrA: FIG. 8
From the text: The gray and black dotted lines and the black line serve as a scale of the efficacy of the molecules to be solubilized. The “no det” lines signify “without detergent”.
The experimental conditions are those of FIG. 7, with the exception of the concentrations of the butyl, heptyl and dodecyl molecules which are as indicated in the figure, for which the g/L<->M correspondence is indicated in Table 2. The “no det” lines signify “without detergent”.
The competent bacteria C41 BL21(DE3) E. coli (Escherichia coli) were transformed with the plasmid pET15b-BMRA bearing the gene coding for BmrA and placed under the control of an inducible promoter and a gene coding for the protein conferring resistance to ampicillin. A positive clone was cultured in a liquid medium at 37° C. and 200 rpm in the presence of ampicillin until a semi-exponential growth phase. The expression of BmrA is induced by addition of 1 mM of isopropyl thio β-galactoside and continued at 25° C. for 4 hrs. The bacteria were harvested by centrifugation, disrupted in a French press, and the membrane fraction was isolated by a series of centrifugation stages at low and high speeds. The protein content was evaluated by colorimetry and set at 20 mg/ml (20 mM Tris-Cl pH 8.0, […] NaCl, 300 mM sucrose) before freezing and storage in liquid nitrogen. Before use, the membrane fraction is then rapidly thawed in water and maintained at 4° C. in ice.
The solubilization is effected at 4° C.

[3] = Critical Micellar Concentration estimated from surface tension data; format: physicochemical
Procedure: The effect of the molecules having an alkyl chain with 1 to 12 methylene groups (m, x axis in the figure) on the CMC is measured at a concentration of 10^−2 M, at pH 6.0 (solid circles) and 8.0 (open circles). Each point corresponds to the mean of three values, estimated from the data from FIG. 2.
(§1) The surfactant properties of the calixarenes of formula (I) are evaluated in a 1 ml sitting drop by means of a Kibron micro-depression instrument and using a stainless steel syringe and a Wilhelmy balance. The curves obtained are processed with the software Sigmaplot v11.
Critical Micellar Concentration (CMC) is understood to mean the concentration beyond which the concentration of the detergent molecules no longer increases since said molecules are involved in micelles (FIG. 13). […] Conversely, when the alkyl chains include more than 8 methylene groups, the resulting CMC decreases appreciably to 0.15 mM when the pH increases from 6 to 8.

[4] = Aggregation state / apparent diameter of aggregates; format: physicochemical
[5] = Surface tension measurement of water (surfactant properties); format: physicochemical
From the text: The effect of the derivatives of calix[4]arene containing alkyl chains with 1 to 12 carbon atoms on the surface tension of water was followed as a function of the concentration of said derivatives (molar M or mol/L) at pH 6.0 (not exposed) and 8.0 (exposed). The surface-active properties of DDM (β-D-dodecyl malto-pyranoside) are also shown in this figure. Each point corresponds to the mean of three values.
The effect of the molecules containing an alkyl chain having from 1 to 12 methylene groups (n, x axis in FIG. 3) on the surface tension of water was measured at a concentration of 10^−2M, at pH 6.0 (open circles) and at pH 8.0 (squares). Each point corresponds to the mean of three values.
as §1

[6] = Modulation of surfactant potential by amino acids (surface tension); format: physicochemical; conditions: compound 10^−2 M, pH 8.0
Procedure: The compound p(COOH)3—Ar4-o(C7H15) is present at a concentration of 10^−2 M whereas that of the amino acids vary as indicated. The surface tension is measured at pH 8.0. The amino acids are indicated by their three-letter code: Glu=glutamic acid, Trp=tryptophan, Asn=asparagine, Gly=glycine, Ala=alanine, Ser=serine, Phe=phenylalanine, Leu=leucine, Pro=Proline, Lys=lysine, His=histidine, Arg=arginine. Each point corresponds to the mean of three values.
as §1

T1 sequence (O06967 whole entry): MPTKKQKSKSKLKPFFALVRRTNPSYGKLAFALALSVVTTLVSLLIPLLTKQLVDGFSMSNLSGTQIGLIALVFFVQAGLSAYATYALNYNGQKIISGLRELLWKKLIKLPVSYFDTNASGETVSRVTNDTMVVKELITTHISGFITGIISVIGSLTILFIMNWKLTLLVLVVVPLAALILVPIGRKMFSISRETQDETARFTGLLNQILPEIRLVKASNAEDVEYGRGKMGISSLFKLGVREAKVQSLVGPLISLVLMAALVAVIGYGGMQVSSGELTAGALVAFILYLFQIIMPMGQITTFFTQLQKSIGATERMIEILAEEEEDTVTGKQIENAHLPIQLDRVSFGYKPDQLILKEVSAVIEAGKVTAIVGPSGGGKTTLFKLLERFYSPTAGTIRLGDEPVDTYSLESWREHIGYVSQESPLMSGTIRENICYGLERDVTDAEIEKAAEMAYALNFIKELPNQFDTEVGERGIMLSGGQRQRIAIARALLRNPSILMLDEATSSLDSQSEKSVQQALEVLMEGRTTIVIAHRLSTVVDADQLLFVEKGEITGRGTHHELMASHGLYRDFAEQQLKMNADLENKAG

Compound: CCCCCCCCCCCCOCCOCCOCCOCCOCCOCCOCCOCCO [C12E8]
- ATPase activity of BmrA with solubilization (BmrA [1]): decreases with the solubilization

Compound: CCCCCCCCCCCCO[C@@H]1O[C@H](CO)[C@@H](O[C@H]2O[C@H](CO)[C@@H](O)[C@H](O)[C@H]2O)[C@H](O)[C@H]1O [DDM, n-dodecyl-β-D-maltopyranoside]
- Solubilization of BmrA (found in supernatant) (BmrA [2]): more pronounced
- ATPase activity of BmrA after reconstitution in liposomes (BmrA [1]; FIG. 11): recovered
- Loss of ATPase activity of BmrA once solubilized (BmrA [1]; FIG. 11): 95%

Compound: CCCCCCCCCCCCOP(=O)([O-])OCC[N+](C)(C)C [FC12, n-dodecylphosphocholine]
- Solubilization of BmrA (found in supernatant) (BmrA [2]): complete
- ATPase activity of BmrA after reconstitution in liposomes (BmrA [1]; FIG. 11): recovered
- ATPase activity of BmrA with solubilization (BmrA [1]): decreases with the solubilization
- Loss of ATPase activity of BmrA once solubilized (BmrA [1]; FIG. 11): 99%

Compound: COc1c2cccc1Cc1cc(CC(=O)O)cc(c1O)Cc1cc(CC(=O)O)cc(c1O)Cc1cc(CC(=O)O)cc(c1O)C2 [compound 5a, 5,11,17 tris-[(carboxylato)methyl]25-mono-methyloxy 26,27,28 tris-hydroxycalix[4]arene]
- CMC [3]: >1.5 mM
- Apparent diameter (nm) ([4]; pH 2): 950 nm
- Apparent diameter (nm) ([4]; pH 4): 340 nm
- Apparent diameter (nm) ([4]; pH 8): 270 nm
- Solubilization of BmrA (found in supernatant) (BmrA [2]): No solubilization

Compound: CCCCOc1c2cccc1Cc1cc(CC(=O)O)cc(c1O)Cc1cc(CC(=O)O)cc(c1O)Cc1cc(CC(=O)O)cc(c1O)C2 [compound 5b, 5,11,17 tris-[(carboxylato)methyl]25-mono-butyloxy 26,27,28 tris-hydroxycalix[4]arene]
- Apparent diameter (nm) ([4]; pH 2): 500 nm
- Apparent diameter (nm) ([4]; pH 6): 145 nm
- Solubilization of BmrA (found in supernatant) (BmrA [2]): increases progressively

Compound: CCCCCCOc1c2cccc1Cc1cc(CC(=O)O)cc(c1O)Cc1cc(CC(=O)O)cc(c1O)Cc1cc(CC(=O)O)cc(c1O)C2 [compound 5c]
- Apparent diameter (nm) ([4]; pH 2): 850 nm
- Apparent diameter (nm) ([4]; pH 6): 400 nm
- Solubilization of BmrA (found in supernatant) (BmrA [2]): more pronounced

Compound: CCCCCCCCCCCCOc1c2cccc1Cc1cc(CC(=O)O)cc(c1O)Cc1cc(CC(=O)O)cc(c1O)Cc1cc(CC(=O)O)cc(c1O)C2 [compound 5d, 5,11,17 tris-[(carboxylato)methyl]25-mono-dodecyl 26,27,28 tris-hydroxycalix[4]arene]
- Surface tension plateau relative to initial surface tension ([5]; 10^−2 M, pH 8.0, FIG. 3): half the initial surface tension
- Surfactant properties (ability to decrease the surface tension of water) ([5]; as a function of concentration, FIG. 2): surfactant properties close to those of DDM
- CMC [3]: ~0.15 mM
- Critical Micellar Concentration (CMC) [3]: 0.15 mM
- Apparent diameter (nm) ([4]; pH 2): 880 nm
- Apparent diameter (nm) ([4]; pH 6): 190 nm
- Solubilization of BmrA (BmrA [2]; 1 mg/ml): rather effectively
- Solubilization of BmrA (BmrA [2]; at CMC of 0.15 mM (0.1 g/L)): no solubilization
- Effect on ATPase activity of BmrA (BmrA [1]): does not lead to inactivation

Compound: calix[4]arene-O-heptyloxy [C4C7]
- CMC [3]: ~1.5 mM
- Critical Micellar Concentration (CMC) [3]: about 1.5 mM
- Effect of amino acid on surface tension ([6]; alanine, phenylalanine, leucine): amplified
- Effect of amino acid on surface tension ([6]; glutamic acid or asparagine): No effect
- Effect of amino acid on surface tension ([6]; glycine): moderate effect
- Effect of amino acid on surface tension ([6]; positively charged amino acids histidine, lysine, arginine, listed as n=7): very pronounced
- Effect of amino acid on surface tension ([6]; positively charged amino acids histidine, lysine, arginine, listed as p(COOH)3—Ar4-o(C7H15)): easily increased
- Solubilization of BmrA (BmrA [2]; 1 mg/ml): rather effectively
- Effect on ATPase activity of BmrA (BmrA [1]): does not lead to inactivation
- ATPase activity of BmrA preserved (BmrA [1]; C4C3 and C4C7 used successively, FIG. 11): about 50%
- ATPase activity of BmrA fraction after gel filtration (BmrA [1]; extracted with C4C7, gel filtration in the presence of FC12, fraction a FIG. 12E): recovered active
- ATPase activity of BmrA fraction reconstituted in liposomes (BmrA [1]; extracted with C4C7, gel filtration, then liposomes, fraction b FIG. 12E): elevated ATPase activity was recovered
